Starred links: 1 amine or outer side, 2 acyl side, 3 side chain; linkers in the order of their positions; H or OH if unused. Positions of bridges follow the written chain, without caps; N, C: chain ends. Non-standard residues stand in square brackets, D forms with d. Residues, ends and D or L forms follow the SMILES beside them. *: point of attachment. X3 = CN(CCCCC(=O)N[C@@H](CS[*:2])C(=O)[*:1])[*:3]; Trp(7-Me) = Cc1cccc2c(C[C@H](N)C(=O)O)c[nH]c12; αMeLys(Me2) = CN(C)CCCC[C@](C)(N)C(=O)O; X2 = CN(C)[C@@H](CCCCN[*:1])C(=O)[*:2]; 2Nal = N[C@@H](Cc1ccc2ccccc2c1)C(=O)O; AEF = NCCOc1ccc(C[C@H](N)C(=O)O)cc1; 3Pal = N[C@@H](Cc1cccnc1)C(=O)O; X4 = CN(CCCCCC(=O)[*:2])[*:1]; αMeL = CC(C)C[C@](C)(N)C(=O)O; Thp = NC1(C(=O)O)CCOCC1; Me2NCH2CH2 = CN(C)CC*; Aib = CC(C)(N)C(=O)O; Ava = NCCCCC(=O)O; βAla = NCCC(=O)O; Sar = CNCC(=O)O

The assay concerns IL-23 induced STAT3 signaling in HEK-Blue™ IL-23 cells. In words: IL-23 induced STAT3 signaling in HEK-Blue IL-23 cells (SEAP reporter). The class given is cell-based. The note with it: human IL23 0.25 ng/ml, read-out: pSTAT3. The procedure, abridged:
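HEK-Blue IL-23 cells (10,000/well) pre-incubated 60 min at 37 °C with serially diluted peptides, then stimulated overnight with human IL-23 (0.25 ng/ml final). STAT3-driven SEAP in supernatant detected with QUANTI-Blue after 45 min at RT (OD 620-655 nm); dose-response curves fitted.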
On to `CC(=O)NCCCC[C@@H]1NC(=O)[C@H](Cc2c[nH]c3ccccc23)NC(=O)[C@@H](N(C)C)CCCCNC(=O)[C@@H]2CSSC[C@H](NC1=O)C(=O)N[C@@H](Cc1ccc(OCCN(C)C)cc1)C(=O)N[C@@H](Cc1ccc3ccccc3c1)C(=O)N[C@@](C)(CCCCN(C)C)C(=O)N[C@H](C(=O)N[C@@H](CC(N)=O)C(=O)N[C@@H](Cc1cccnc1)C(=O)N(C)CC(N)=O)CCC(=O)NCCCCC(=O)N2` [compound 36] ([Ava]C[X2]WK(Ac)CY(Me2NCH2CH2)[2Nal][αMeLys(Me2)]EN[3Pal][Sar]-NH2; disulfide 2-6; lactam N-10), for which the IC50 worked out at 13900 pM.

On to `CC(C)C[C@@H](NC(=O)[C@H](CC(N)=O)NC(=O)[C@@H]1CC(=O)N(C)CCCCCC(=O)N[C@H]2CSSC[C@H](NC(=O)[C@H](CCC(N)=O)NC(=O)[C@H](Cc3c[nH]c4ccccc34)NC(=O)[C@H]([C@@H](C)O)NC(=O)[C@H](CC(N)=O)NC2=O)C(=O)N[C@@H](Cc2ccc(OCCN(C)C)cc2)C(=O)N[C@@H](Cc2ccc3ccccc3c2)C(=O)N[C@@](C)(CC(C)C)C(=O)N1)C(N)=O` [compound 40] ([X4]CNTWQCY(Me2NCH2CH2)[2Nal][αMeL]DN[dL]-NH2; disulfide 2-7; lactam N-11), for which the IC50 is 50800 pM.

Take `CC(=O)N[C@H]1CCCCNC(=O)[C@@H]2CSSC[C@H](NC(=O)[C@H](CCC(N)=O)NC(=O)[C@H](Cc3c[nH]c4ccccc34)NC1=O)C(=O)N[C@@H](Cc1ccc(OCCN)cc1)C(=O)N[C@@H](Cc1ccc3ccccc3c1)C(=O)N[C@@](C)(CC(C)C)C(=O)N[C@H](C(=O)N[C@@H](C)C(=O)N[C@H](CC(C)C)C(N)=O)CCC(=O)N(C)CCCCC(=O)N2` [compound 44] (Ac-KWQC[AEF][2Nal][αMeL]EA[dL]-NH2; linker 1-4-8 via X3): the IC50 worked out at 42500 pM.

In the case of `CC(=O)NCCCC[C@@H]1NC(=O)[C@H](Cc2c[nH]c3c(C)cccc23)NC(=O)[C@H]([C@@H](C)O)NC(=O)[C@H](CC(N)=O)NC(=O)[C@@H]2CSSC[C@H](NC1=O)C(=O)N[C@@H](Cc1ccc(OCCN(C)C)cc1)C(=O)N[C@@H](Cc1ccc3ccccc3c1)C(=O)NC(C)(C)C(=O)N[C@H](C(=O)N[C@@H](CC(N)=O)C(=O)N[C@@H](Cc1c[nH]cn1)C(=O)N(C)CC(N)=O)CCC(=O)NCCCCC(=O)N2` [compound 45] ([Ava]CNT[Trp(7-Me)]K(Ac)CY(Me2NCH2CH2)[2Nal][Aib]ENH[Sar]-NH2; disulfide 2-7; lactam N-11), the IC50 is 670 pM.

With `CC(=O)NCCCC[C@@H]1NC(=O)[C@H](Cc2c[nH]c3c(C)cccc23)NC(=O)[C@H]([C@@H](C)O)NC(=O)[C@H](CC(N)=O)NC(=O)[C@@H]2CSSC[C@H](NC1=O)C(=O)N[C@@H](Cc1ccc(OCCN(C)C)cc1)C(=O)N[C@@H](Cc1ccc3ccccc3c1)C(=O)NC1(CCOCC1)C(=O)N[C@H](C(=O)N[C@@H](CC(N)=O)C(=O)N[C@@H](Cc1c[nH]cn1)C(=O)N(C)CC(N)=O)CCC(=O)NCCCCC(=O)N2` [compound 46] ([Ava]CNT[Trp(7-Me)]K(Ac)CY(Me2NCH2CH2)[2Nal][Thp]ENH[Sar]-NH2; disulfide 2-7; lactam N-11), the IC50 came to 840 pM.

Take `CC(=O)NCCCC[C@@H]1NC(=O)[C@H](Cc2c[nH]c3c(C)cccc23)NC(=O)[C@H]([C@@H](C)O)NC(=O)[C@H](CC(N)=O)NC(=O)[C@@H]2CSSC[C@H](NC1=O)C(=O)N[C@@H](Cc1ccc(OCCN(C)C)cc1)C(=O)N[C@@H](Cc1ccc3ccccc3c1)C(=O)N[C@@](C)(CC(C)C)C(=O)N[C@H](C(=O)N[C@@H](CC(N)=O)C(=O)N[C@@H](Cc1c[nH]cn1)C(=O)N(C)CC(N)=O)CCC(=O)NCCCCC(=O)N2` [compound 47] ([Ava]CNT[Trp(7-Me)]K(Ac)CY(Me2NCH2CH2)[2Nal][αMeL]ENH[Sar]-NH2; disulfide 2-7; lactam N-11): the IC50 turned out to be 570 pM.

For `CC(=O)NCCCC[C@@H]1NC(=O)[C@H](Cc2c[nH]c3c(C)cccc23)NC(=O)[C@H]([C@@H](C)O)NC(=O)[C@H](CC(N)=O)NC(=O)[C@@H]2CSSC[C@H](NC1=O)C(=O)N[C@@H](Cc1ccc(OCCN(C)C)cc1)C(=O)N[C@@H](Cc1ccc3ccccc3c1)C(=O)NC(C)(C)C(=O)N[C@H](C(=O)N[C@@H](CC(N)=O)C(=O)N[C@@H](Cc1c[nH]cn1)C(=O)NCCC(N)=O)CCC(=O)NCCCCC(=O)N2` [compound 48] ([Ava]CNT[Trp(7-Me)]K(Ac)CY(Me2NCH2CH2)[2Nal][Aib]ENH[βAla]-NH2; disulfide 2-7; lactam N-11), the IC50 is 600 pM.

For the compound `CC(=O)NCCCC[C@@H]1NC(=O)[C@H](Cc2c[nH]c3c(C)cccc23)NC(=O)[C@H]([C@@H](C)O)NC(=O)[C@H](CC(N)=O)NC(=O)[C@@H]2CSSC[C@H](NC1=O)C(=O)N[C@@H](Cc1ccc(OCCN(C)C)cc1)C(=O)N[C@@H](Cc1ccc3ccccc3c1)C(=O)NC1(CCOCC1)C(=O)N[C@H](C(=O)N[C@@H](CC(N)=O)C(=O)N[C@@H](Cc1c[nH]cn1)C(=O)NCCC(N)=O)CCC(=O)NCCCCC(=O)N2` [compound 49] ([Ava]CNT[Trp(7-Me)]K(Ac)CY(Me2NCH2CH2)[2Nal][Thp]ENH[βAla]-NH2; disulfide 2-7; lactam N-11), the IC50 stood at 1790 pM.

`CC(=O)NCCCC[C@@H]1NC(=O)[C@H](Cc2c[nH]c3c(C)cccc23)NC(=O)[C@H]([C@@H](C)O)NC(=O)[C@H](CC(N)=O)NC(=O)[C@@H]2CSSC[C@H](NC1=O)C(=O)N[C@@H](Cc1ccc(OCCN(C)C)cc1)C(=O)N[C@@H](Cc1ccc3ccccc3c1)C(=O)N[C@@](C)(CC(C)C)C(=O)N[C@H](C(=O)N[C@@H](CC(N)=O)C(=O)N[C@@H](Cc1c[nH]cn1)C(=O)NCCC(N)=O)CCC(=O)NCCCCC(=O)N2` [compound 50] ([Ava]CNT[Trp(7-Me)]K(Ac)CY(Me2NCH2CH2)[2Nal][αMeL]ENH[βAla]-NH2; disulfide 2-7; lactam N-11): the IC50 was determined as 980 pM.

Take `CC(=O)NCCCC[C@@H]1NC(=O)[C@H](Cc2c[nH]c3c(C)cccc23)NC(=O)[C@H]([C@@H](C)O)NC(=O)[C@H](CC(N)=O)NC(=O)[C@@H]2CSSC[C@H](NC1=O)C(=O)N[C@@H](Cc1ccc(OCCN(C)C)cc1)C(=O)N[C@@H](Cc1ccc3ccccc3c1)C(=O)NC1(CCOCC1)C(=O)N[C@H](C(=O)N[C@@H](CC(N)=O)C(=O)N[C@@H](Cc1cccnc1)C(N)=O)CCC(=O)NCCCCC(=O)N2` [compound 51] ([Ava]CNT[Trp(7-Me)]K(Ac)CY(Me2NCH2CH2)[2Nal][Thp]EN[3Pal]-NH2; disulfide 2-7; lactam N-11): the IC50 turned out to be 50 pM.

The values above are taken from patent publication US20260258084A1, “New Peptides as Selective IL-23 Receptor Antagonists” (Sanofi, priority 2022, published 2026).
